# Measurements reported in US5266588A, “Compound produced by a strain of microtetraspora having antibacterial and neuritogenic activity” (Bristol-Myers Squibb Company, priority 1992, dated 1993).
# “Also recorded” adds a separate entry of the source.
# Assays:
# [1] = literature table; cited from earlier work
# [2] = system: PC 12R cells; assay: Assay for the neurite outgrowth (PC 12R cells pre-treated with 0.1 ng/ml NGF); assay type: cell-based, rat; settings: for No. of Neurites: neurites over 10 mm long on monitor
# Description: Assay for the Neurite Outgrowth
# The PC 12R cell density was adjusted to 1×10^5 cells/ml and 180 μl aliquots of the cell suspension were added to assay wells in a 96 well microtiter plate (Suimitomo). […] For the positive controls, 5.0 ng/ml NGF was added to a well. As negative controls, PC 12R cells without NGF were also prepared. […] Then a 20 μl aliquot of a test sample at varied concentrations was added to the test well containing PC 12R cells pre-treated with 0.1 ng/ml NGF. After 24 hours' incubation, the medium was removed and the cells were fixed with 0.3% glutaraldehyde (Tokyo Kasei) in Dulbecco's phosphate buffered saline and stained with Harris hematoxylin solution (Merck).
# The stained cells were observed under a phase-contrast microscope connected with a video camera-CRT system. PC 12R cells were magnified 500 times on the CRT monitor. The lengths of spikes of the negative control cells were measured in order to establish the standard length of a spike of the PC 12R cells.
# [3] = system: B. subtilis PCI 219; assay: Antibacterial activity (serial 2-fold dilution MIC); assay type: cell-based; settings: Bacillus subtilis, PCI219; Nutrient Agar, pH 7.0; 10^5 cells/ml; 32° C., 18 hr
# Description: (§1) Assay for the Antibacterial Activity
# (§2) The MIC's of BU-4514N against various test microorganisms were determined by the serial 2-fold dilution method after overnight incubation at 32° C. Nutrient agar medium (Difco) was used for Gram-positive and Gram-negative bacteria.
# (§3) Medium: Nutrient Agar, pH 7.0
# (§4) Inoculum size: 10^5 cells/ml
# (§5) Incubations: 32° C., 18 hr
# [4] = system: C. fleundii GN 7391; assay: as above; assay type: cell-based; settings: Nutrient Agar, pH 7.0; 10^5 cells/ml; 32° C., 18 hr
# Description: as §1, §2, §3, §4, §5
# [5] = system: E. coli Juhl A15119; assay: as above; assay type: cell-based; settings: Escherichia coli, JUHLA15119; Nutrient Agar, pH 7.0; 10^5 cells/ml; 32° C., 18 hr
# Description: as §1, §2, §3, §4, §5
# [6] = system: E. coli K12; assay: as above; assay type: cell-based; settings: Escherichia coli, Nutrient Agar, pH 7.0, 10^5 cells/ml, 32° C., 18 hr
# Description: as §1, §2, §3, §4, §5
# [7] = system: E. coli NIHJ JC-2; assay: as above; assay type: cell-based; settings: Escherichia coli, NIHJJC2; Nutrient Agar, pH 7.0; 10^5 cells/ml; 32° C., 18 hr
# Description: as §1, §2, §3, §4, §5
# [8] = system: K. pneumoniae PCI 602; assay: as above; assay type: cell-based; settings: Klebsiella pneumoniae, PCI602; Nutrient Agar, pH 7.0; 10^5 cells/ml; 32° C., 18 hr
# Description: as §1, §2, §3, §4, §5
# [9] = system: M. luteus PCI 1001; assay: as above; assay type: cell-based; settings: Micrococcus luteus, PCI1001; Nutrient Agar, pH 7.0; 10^5 cells/ml; 32° C., 18 hr
# Description: as §1, §2, §3, §4, §5
# [10] = system: P. aeruginosa A9843A; assay: as above; assay type: cell-based; settings: Pseudomonas aeruginosa, 18 h, pH 7
# Description: as §1, §2, §3, §4, §5
# [11] = system: S. aureus A15036 (MRSA); assay: as above; assay type: cell-based; settings: Staphylococcus aureus, Nutrient Agar, pH 7.0, 10^5 cells/ml, 32° C., 18 hr
# Description: as §1, §2, §3, §4, §5
# [12] = system: S. aureus FDA 209P JC-1; assay: as above; assay type: cell-based; settings: Staphylococcus aureus, FDA209P; Nutrient Agar, pH 7.0; 10^5 cells/ml; 32° C., 18 hr
# Description: as §1, §2, §3, §4, §5
# [13] = system: S. aureus Smith; assay: as above; assay type: cell-based; settings: Staphylococcus aureus; Nutrient Agar, pH 7.0; 10^5 cells/ml; 32° C., 18 hr
# Description: as §1, §2, §3, §4, §5
# [14] = system: S. typhi 901; assay: as above; assay type: cell-based; settings: Salmonella enterica, 18 h, pH 7
# Description: as §1, §2, §3, §4, §5
# [15] = system: Gram-positive bacteria; assay: In vitro antibacterial activity against Gram-positive bacteria; assay type: cell-based
# Description: as §1, §2
# [16] = Solubility; assay type: physicochemical
# [17] = system: PC12 pheochromocytoma cells; settings: cited from earlier work
# [18] = system: retrograde neuronal cell death; septohippocampal connections; settings: cited from earlier work
# [19] = system: cholinergic neuron atrophy and spatial memory impairment; settings: aged rats; cited from earlier work
# [20] = system: adrenal medullary autografts; settings: intraperitoneal infusion, Parkinson's disease; cited from earlier work
# [21] = 1.6 μg/ml, with 0.1 ng/ml NGF, 24 h
# [22] = 3.1 μg/ml, with 0.1 ng/ml NGF, 24 h
# [23] = 6.3 μg/ml, with 0.1 ng/ml NGF, 24 h
# [24] = 12.5 μg/ml, sum of 5 fields/well and 3 wells, with 0.1 ng/ml NGF, 24 h
# [25] = NGF 0.1 ng/ml (Running control)
compound,measurement,setting,value
"C=C1/C(=C\C=C2/CCC[C@]3(C)[C@@H]([C@H](C)CCCC(C)(C)O)CC[C@@H]23)C[C@@H](O)C[C@@H]1O [1,25-Dihydroxy-vitamin D3]",Note (reported NGF mimic activity),[1],NGF inducer
CC1=C(/C=C/C(C)=C/C=C/C(C)=C/C(=O)O)C(C)(C)CCC1 [Retinoic acid],Note (reported NGF mimic activity),[1],NGF inducer
CCCCCCCCCCCCCC(=O)O[C@@H]1[C@@H](C)[C@@]2(O)[C@@H](C=C(CO)C[C@]3(O)C(=O)C(C)=C[C@@H]23)[C@@H]2C(C)(C)[C@]12OC(C)=O [Phorbol 12-myristate 13-acetate],Note (reported NGF mimic activity),[1],NGF inducer
CC1=CC2CC(C)CCC2C(C)(C(=O)C2=C(O)CNC2=O)C1CC(C)OC1CCC(N)C(C)O1 (stereo not shown) [BU-4514N],No. of Neurites,[2]; [21],2
same,No. of Cells,[2]; [21],1611
same,Ratio (No. of Neurites/No. of Cells),[2]; [21],0.12%
same,No. of Neurites,[2]; [22],25
same,No. of Cells,[2]; [22],1848
same,Ratio (No. of Neurites/No. of Cells),[2]; [22],1.4%
same,No. of Neurites,[2]; [23],149
same,No. of Cells,[2]; [23],1570
same,Ratio (No. of Neurites/No. of Cells),[2]; [23],9.5%
same,No. of Neurites,[2]; [24],244
same,No. of Cells,[2]; [24],1123
same,Ratio (No. of Neurites/No. of Cells),"[2]; 12.5 μg/ml, with 0.1 ng/ml NGF, 24 h",21.7%
same,neurite outgrowth in number and length,"[2]; 12.5 to 6.3 μg/ml, compared to the negative control cells",significantly induces the neurite outgrowth in number and length
same,MIC,[3],0.8 µg/mL
same,MIC,[4],> 100 µg/mL
same,MIC,[5],> 100 µg/mL
same,MIC,[6],> 100 µg/mL
same,MIC,[7],> 100 µg/mL
same,MIC,[8],> 100 µg/mL
same,MIC,[9],1.6 µg/mL
same,MIC,[10],> 100 µg/mL
same,MIC,[11],3.1 µg/mL
same,MIC,[12],1.6 µg/mL
same,MIC,[13],3.1 µg/mL
same,MIC,[14],> 100 µg/mL
same,in vitro antibacterial activity,[15],good in vitro antibacterial activity
same,solubility,[16]; acidic water,soluble
same,solubility,[16]; dimethylsulfoxide,soluble
same,solubility,[16]; methanol,soluble
same,solubility,"[16]; ordinary organic solvents, such as chloroform, ethyl acetate and benzene",practically insoluble
same,solubility,[16]; water,practically insoluble
NGF: protein known to be essential for the development and maintenance of certain sympathetic and sensory neurons in the peripheral nervous system,No. of Cells,[2]; [25],1565
same,Ratio (No. of Neurites/No. of Cells),[2]; [25],0.13%
same,No. of Neurites,[2]; [25],2
same,No. of Cells,[2]; NGF 5 ng/ml (Positive control),1053
same,Ratio (No. of Neurites/No. of Cells),[2]; NGF 5 ng/ml (Positive control),6.8%
same,No. of Neurites,[2]; NGF 5 ng/ml (Positive control),72
same,sensitivity of PC 12R cells to NGF,[2]; as high as,1 ng/mL
same,response of PC12 cells to NGF,[17],differentiate into sympathetic neuron-like cells; also recorded: differentiating into sympathetic neuron-like cells
same,behavioral recovery,[18]; after damage to the septohippocampal connections,promote behavioral recovery
same,retrograde neuronal cell death,"[18]; intraventricular injections or infusions, young adult rats",prevent retrograde neuronal cell death
same,cholinergic neuron atrophy and spatial memory impairment,[19],ameliorate cholinergic neuron atrophy and spatial memory impairment
same,support of adrenal medullary autografts,[20],supports adrenal medullary autografts
